Measured values: patent US7214507B2, “Plant enzymes for bioconversion” (Plant Research International B.V., priority 2001, dated 2007)
Entries after “also recorded” stand apart in the source; their conditions may differ.

What was measured:
[1] = test system: (+)-germacrene A hydroxylase; experiment: Conversion of sesquiterpenes by a microsomal pellet of chicory in the presence of NADPH; settings: for Conversion by the (+)-germacrene A hydroxylase containing microsomal pellet (in words): NADPH, microsomal pellet from chicory roots
Procedure: During the whole procedure the plant material was kept on ice as much as possible. After 5 times several seconds of mixing, the slurry was transferred to the cheesecloth with an additional 10 ml of extraction buffer. The cheesecloth was squeezed out and the filtrate was centrifuged (Sigma 2K15) for 20 minutes at 20,000 g and 4° C. The supernatant was poured over a funnel filled with glass wool. […] The resulting microsomal pellets (about 6) were stored under argon at −80° C.
Before incubation, 10 pellets were pottered in 30 mL of assay buffer consisting of 25 mM Tris pH 7.5), 2 mM DTT, 1 mM ascorbic acid, 5 μM FAD, 5 μM FMN and 10% (v/v) glycerol. The enzyme suspension was divided in 1 mL aliquots and incubated with 5 μL substrate solution in the presence of a 1 mM NADPH-regenerating system that consisted of 1 mM NADPH, 5 mM glucose-6-phosphate, and 1.2 IU glucose-6-phosphate dehydrogenase (all from Sigma). The initial concentration of substrate in each assay was 45 μM and all were done in duplicate. […] After 60 minutes the incubations were stopped by storing them at −20° C. in a freezer.
The enzyme assays were extracted 2 times with 1 mL 20% (v/v) ether in pentane, after the addition of 5 μM cis-nerolidol (Fluka). The organic phase was filtered through a glasswool-plugged (dimethyl chlorosilane-treated, Chrompack) Pasteur pipette that contained 0.4 gram of silica and a little anhydrous MgSO4. The pipette was rinsed with 1.5 mL ether and the extract was concentrated to approximately 50 μL under a stream of nitrogen.

[2] = test system: leucodin biosynthesis; experiment: Formation of leucodin from (+)-costunolide by 20,000 g chicory root supernatant; type: biochemical, Cichorium intybus L.
Procedure: (§1) Incubations were also done with boiled desalted supernatant and in the absence of NADPH. The experiments were repeated with elema-1,3,11(13)-trien-12-oic acid (FIG. 2, 9) and a mixture of α- and γ-costic acid (14) that might serve as substrate analogues for the germacrene acid (4). After 1 h of incubation at 30° C., the reactions were stored in the freezer.
(§2) The organic phase was filtered through a glass-wool plugged (dimethyl chlorosilane-treated glasswool; Chrompack) Pasteur pipette that contained 0.45 g of silica and a little anhydrous MgSO4. […] Samples of 2 μL were analysed by GC-MS using an injection port temperature of 320° C. to provoke Cope rearrangement of (+)-costunolide (5).
(§3) Incubations as described for the germacrene acid were also done with (+)-costunolide (30 μM) to test whether any further enzymatic conversion of this compound would occur during the incubation of germacrene acid. Parthenolide (20 μM) (FIG. 9, 17) was incubated as well since it might be an intermediate in the formation of guaianolides. […] The effect of established cytochrome P450 inhibitors and CO on the conversion of (+)-costunolide was studied, just as the effect of various pyridine nucleotide cofactors and an argon atmosphere.

[3] = molecular target: T1, (+)-costunolide synthase (Cichorium intybus, UniProt G3GBK0); experiment: (+)-Costunolide synthase activity, 20,000 g chicory root supernatant with germacrene acid; type: biochemical, Cichorium intybus L.; settings: for Percentage Enzyme Activity ± SD, (+)-costunolide synthase: addition at 1 mM, 100% = sum of dehydrosaussurea lactone, saussurea lactone and leucodin peaks with 1 mM NADPH; for Conversion of substrate analogues by the (+)-costunolide synthase (in words): 20,000 g supernatant, NADPH
T1 construct: A cell free extract of chicory roots was prepared from the frozen material; from tissue; host or cells: chicory roots, desalted 20,000 g supernatant
T1 sequence (G3GBK0 1-494): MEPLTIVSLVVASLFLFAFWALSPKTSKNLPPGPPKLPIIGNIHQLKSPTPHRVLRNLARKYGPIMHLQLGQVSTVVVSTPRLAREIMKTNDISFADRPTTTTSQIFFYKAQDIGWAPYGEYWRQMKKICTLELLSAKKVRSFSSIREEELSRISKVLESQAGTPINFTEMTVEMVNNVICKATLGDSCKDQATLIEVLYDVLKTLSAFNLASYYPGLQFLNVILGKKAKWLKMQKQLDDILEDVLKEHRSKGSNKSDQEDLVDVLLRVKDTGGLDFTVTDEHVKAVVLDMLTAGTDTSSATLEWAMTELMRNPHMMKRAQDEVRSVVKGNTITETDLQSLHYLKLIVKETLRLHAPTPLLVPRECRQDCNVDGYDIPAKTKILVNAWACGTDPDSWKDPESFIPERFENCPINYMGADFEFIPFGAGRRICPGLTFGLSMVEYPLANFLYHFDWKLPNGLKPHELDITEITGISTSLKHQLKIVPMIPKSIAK
Procedure: A cell free extract of chicory roots was prepared from the frozen material in the same way as described for isolation of the germacrene A hydroxylase (Example 1), but MgCl2 was not added to the extraction buffer since the accompanying (+)-germacrene A synthase activity was not essential for the detection of (+)-costunolide synthase activity. […] DTT was omitted from the assay buffer, because SH-groups present in DTT might undergo an “Michael-type addition” to the C11–C13 exocyclic double bond of (+)-costunolide Kupchan et al., 1970). […] Incubations were also done with boiled desalted supernatant and in the absence of NADPH. The experiments were repeated with elema-1,3,11(13)-trien-12-oic acid (FIG. 2, 9) and a mixture of α- and γ-costic acid (14) that might serve as substrate analogues for the germacrene acid (4). After 1 h of incubation at 30° C., the reactions were stored in the freezer.
as §2, with “(5). Mass spectra were recorded at 70 eV scanning from 35 to 300 atomic mass units; the GC oven temperature was programmed as described before (de Kraker et al., 1998).” for “(5).”
To determine whether the formation of (+)-costunolide (5) from germacrene acid (4) was catalysed by a cytochrome P450-enzyme, the effect of various established cytochrome P450-inhibitors (cytochrome C, metyrapone, clotrimazole, micozanole, and amino-benzotriazole) on this reaction were tested, as well as the effect of CO or an argon atmosphere. The cofactor dependence was also investigated, i.e. NAD(P)^+ or NADH was added instead of NADPH. Experiments were carried out in a similar manner as described for the germacrene A hydroxylase in Example I using a 20,000 g supernatant and 5 μL of 0.2 mM cis-nerolidol as internal standard. Blue-light reversal of CO-inhibition was investigated with gas-mixtures of 10% O2 plus 90% N2 (blank) and 10% O2 plus 90% CO.

[4] = test system: (+)-costunolide reductase activity; experiment: Formation of 11(S),13-dihydrocostunolide from (+)-costunolide by 20,000 g chicory root supernatant; type: biochemical, Cichorium intybus L.; settings: for Reduction of the C11–C13 exocyclic double bond (in words): 20 μM substrate, NADPH
Procedure: as §1, §2, §3

[5] = test system: (+)-germacrene A hydroxylase; experiment: Effect of the used solvent for (+)-γ-gurjunene on enzyme activity; type: biochemical, Cichorium intybus L.; settings: peak height of γ-gurjunene alcohol relative to the internal standard (5 nmol cis-nerolidol); 5 μL of 10 mM γ-gurjunene in the solvent
Procedure: Before experiments as described in this example were started, it was tested which organic solvent could be best used to dissolve the substrate. […] Karp et al., 1990).

[6] = test system: NAD(P)+-dependent dehydrogenase(s); experiment: Oxidation of alcohols by 150,000 g supernatant of chicory roots with NAD(P)+; type: biochemical, Cichorium intybus L.
Procedure: It was assumed that this β-nootkatol is an intermediate in the formation of nootkatone. For this reason incubations of 100 μM β-nootkatol were performed at pH 10 with NAD(P)^+and a 150,000 g supernatant of chicory roots, such as described for the conversion of (−)-elema-1,3,11(13)-12-ol and germacra-1(10),4,11(13)-trien-12-ol by NADP^+-dependent dehydrogenases by De Kraker et al. (2001). During incubation the added β-nootkatol was converted for more than 60% into nootkatone in the presence of either 1 mM NADP^+ or 1 mM NAD^+. In the absence of these cofactors conversion still amounted to 25%, whereas the boiled enzyme extract gave no conversion of β-nootkatol. At pH 7.5, enzyme activity was slightlylower, whereas a 150,000 g pellet, as expected, yielded 3-fold less dehydrogenase activity than the corresponding supernatant.
To get some more information about the substrate specificity of the dehydrogenase(s) present in chicory roots, incubations with the 150,000 g supernatant were also performed with 100 μM trans,trans-farnesol as substrate (FIG. 19) in the presence of either NAD^+ or NADP^+. Trans,trans-farnesol was converted up to 60% into a mixture of trans,trans-farnesal and cis,trans-farnesal, and small amounts of farnesoic acid were observed as well.

[7] = atmosphere: 80% CO + 20% O2 or argon, air = 100%
[8] = pyridine nucleotide cofactor 1 mM, substrate (+)-costunolide
[9] = inhibitor 10 μM, DMSO (1%) control = 100%
[10] = inhibitor 100 μM, control = 100%

C=C(C)C1CC=C(C)CC1 (single isomer, unassigned; (+)) [(+)-limonene]
Conversion by the (+)-germacrene A hydroxylase containing microsomal pellet (in words) [1]: Some conversion

C=C(C)[C@H]1C/C=C(\C)CC/C=C(\C)CC1 [(+)-germacrene A]
Subsequent oxidations into germacrene aldehyde and acid, share of the produced germacrene alcohol ([1]; microsomal pellet, pH 7.5, NADPH-regenerating system): approx. 15%

C=C(C)[C@@H]1CC[C@@]2(C)CCCC(=C)[C@@H]2C1 [(+)-β-selinene]
Share of the added substrate that was hydroxylated ([1]; 50 nmol added): Approximately 30%

CC1=CC[C@@]23[C@@H]([C@@H]12)[C@H](C(C)C)CC[C@H]3C [(−)-(α)-Cubebene]
Conversion by the (+)-germacrene A hydroxylase containing microsomal pellet (in words) [1]: not converted

[C-]#[O+] [CO]
Formation of leucodin from (+)-costunolide, effect of inhibitors (in words) [2]: strongly inhibited | Percentage Enzyme Activity ± SD, Leucodin (22) [2, 7]: 8 ± 1% | Effect on the produced sum of (+)-costunolide, 11(S),13-dihydrocostunolide and leucodin (in words) ([3]; 90% CO + 10% O2, blue light 450 nm): inhibitory effect | Percentage Enzyme Activity ± SD, Dihydrocostunolide (20) [4, 7]: 140 ± 4%

C[S+](C)[O-] [DMSO]
Enzyme activity ± SD [5]: 1.80 ± 0.09

NC(=O)C1=CN([C@@H]2O[C@H](COP(=O)(O)OP(=O)(O)OC[C@H]3O[C@@H](n4cnc5c(N)ncnc54)[C@H](O)[C@@H]3O)[C@@H](O)[C@H]2O)C=CC1 [NADH]
Percentage Enzyme Activity ± SD, Leucodin (22) [2, 8]: 0 ± 0% | Percentage Enzyme Activity ± SD, (+)-costunolide synthase [3]: 7 ± 2% | Percentage Enzyme Activity ± SD, Dihydrocostunolide (20) [4, 8]: 14 ± 2%

NC(=O)C1=CN([C@@H]2O[C@H](COP(=O)(O)OP(=O)(O)OC[C@H]3O[C@@H](n4cnc5c(N)ncnc54)[C@H](OP(=O)(O)O)[C@@H]3O)[C@@H](O)[C@H]2O)C=CC1 [NADPH]
Percentage Enzyme Activity ± SD, Leucodin (22) [2, 8]: ^a100 ± 10 ^ % | Percentage Enzyme Activity ± SD, (+)-costunolide synthase [3]: 100 ± 8% | Percentage Enzyme Activity ± SD, Dihydrocostunolide (20) [4, 8]: ^a100 ± 3 ^ %

CC(C)=CCC/C(C)=C/CC/C(C)=C/CO [Trans,trans-farnesol, trans,trans-farnesol]
Conversion into a mixture of trans,trans-farnesal and cis,trans-farnesal ([6]; 100 μM substrate, NAD+ or NADP+, 150,000 g supernatant): up to 60% | Conversion of farnesol into farnesal, share of maximum enzyme activity ([6]; pH 7.0, maximum at pH 10): 30%

Nn1nnc2ccccc21 [aminobenzotriazole]
Percentage Enzyme Activity ± SD, Leucodin (22) [2, 9]: 86 ± 33% | Reduction of the amount of measurable enzymatic products of germacrene acid ([3]; inhibitor 100 μM): 44% | Percentage Enzyme Activity ± SD, Dihydrocostunolide (20) [4, 9]: 75 ± 8%

[Ar] [argon]
Percentage Enzyme Activity ± SD, Leucodin (22) [2, 7]: 0 ± 0% | Percentage Enzyme Activity ± SD, (+)-costunolide synthase, argon atmosphere ([3]; 1 mM NADPH + argon atmosphere): 0 ± 0% | Percentage Enzyme Activity ± SD, Dihydrocostunolide (20) [4, 7]: 134 ± 6%

Clc1ccccc1C(c1ccccc1)(c1ccccc1)n1ccnc1 [clotrimazole]
Percentage Enzyme Activity ± SD, Leucodin (22) [2, 9]: 0 ± 0% | Reduction of the amount of measurable enzymatic products of germacrene acid ([3]; inhibitor 100 μM): 97% | Percentage Enzyme Activity ± SD, Dihydrocostunolide (20) [4, 9]: 119 ± 9%

C=C1CC[C@H]2C(=C)CC[C@H]3C(=C)C(=O)O[C@@H]3[C@@H]12 [dehydrocostus lactone]
Reduction of the C11–C13 exocyclic double bond (in words) [4]: not capable of doing the same | Reduction of the C11–C13 exocyclic double bond (in words) ([4]; listed as dehydrocostuslacton): not reduced

C=CC1(C)CCC(C(=C)C(=O)O)CC1C(=C)C (stereo not shown) [elema-1,3,11(13)-trien-12-oic acid]
Conversion of substrate analogues by the (+)-costunolide synthase (in words) [3]: no detectable conversion; also recorded: not capable of converting

CCO [ethanol]
Enzyme activity ± SD [5]: 1.87 ± 0.01

CC(C)=C1C/C=C(\C)CC/C=C(\C)CC1=O [germacrone]
Conversion by the (+)-germacrene A hydroxylase containing microsomal pellet (in words) [1]: not converted; also recorded: not accepted as a substrate; also recorded: not hydroxylated

CCCCCC [hexane]
Enzyme activity ± SD [5]: <0.1

CC(C)O [iso-propanol]
Enzyme activity ± SD [5]: 1.76 ± 0.16

C=C(C)[C@H]1CC=C(C)CC1 [limonene]
Conversion by the (+)-germacrene A hydroxylase containing microsomal pellet (in words) [1]: hardly converted; also recorded: did hardly occur

CC(C)(C(=O)c1cccnc1)c1cccnc1 [metyrapone]
Percentage Enzyme Activity ± SD, Leucodin (22) [2, 10]: 70 ± 16% | Reduction of the amount of measurable enzymatic products of germacrene acid ([3]; inhibitor 1 mM): 78% | Percentage Enzyme Activity ± SD, Dihydrocostunolide (20) [4, 10]: 87 ± 11%

Clc1ccc(COC(Cn2ccnc2)c2ccc(Cl)cc2Cl)c(Cl)c1 (stereo not shown) [miconazole]
Percentage Enzyme Activity ± SD, Leucodin (22) [2, 9]: 0 ± 0% | Reduction of the amount of measurable enzymatic products of germacrene acid ([3]; inhibitor 100 μM): 71% | Percentage Enzyme Activity ± SD, Dihydrocostunolide (20) [4, 9]: 100 ± 5%

C=C(C)[C@@H]1CC[C@@]2(C)CCC[C@](C)(O)[C@@H]2C1 [neointermedeol]
Less efficiently hydroxylated than β-selinene [1]: 15 fold

CCCCC [pentane]
Enzyme activity ± SD [5]: 0.47 ± 0.07

C=C(C(=O)O)[C@@H]1CC[C@@]2(C)CCC=C(C)[C@@H]2C1 [α-costic acid]
Conversion of substrate analogues by the (+)-costunolide synthase (in words) [3]: not capable of converting

C=C(C(=O)O)[C@@H]1CC[C@@]2(C)CCCC(C)=C2C1 [γ-costic acid]
Conversion of substrate analogues by the (+)-costunolide synthase (in words) [3]: not converted either

(−)-(α)-gurjunene
Conversion by the (+)-germacrene A hydroxylase containing microsomal pellet (in words) [1]: not converted

(−)-limonene
Conversion by the (+)-germacrene A hydroxylase containing microsomal pellet (in words) [1]: Some conversion

cytochrome C: established cytochrome P450 inhibitor
Percentage Enzyme Activity ± SD, Leucodin (22) [2, 10]: 0 ± 0% | Reduction of the amount of measurable enzymatic products of germacrene acid ([3]; inhibitor 100 μM): no enzymatic products of germacrene acid (4) were measured | Percentage Enzyme Activity ± SD, Dihydrocostunolide (20) [4, 10]: 105 ± 5%
